Results published in patent US20200179528A9, “IMMUNE CELL-TARGETED PARTICLES” (Dana-Farber Cancer Institute, Inc., priority 2015, published 2020).

Tests used:
[1] = Loading of other small molecules into the nanoparticles and their release; type: physicochemical; conditions: 10%, 20% or 40% small molecule
Procedure: The formulation procedure used is the same as that used in FIG. 1. Release was measured by absorbance maximum at 280 nm, 300 nm, and 340 nm, respectively. 22.5 mg of PLGA and 7.5 mg of PLGA-PEG were used along with 3 mg (10%), 6 mg (20%), or 12 mg (40%) of small molecule. Note that the release profile can be delayed by loading less drug. Note that the encapsulation efficiency can increase (epacadostat) or decrease (resiquimod, ruxolitinib) by increasing initial loading amount.

[2] = SD-208 solubility, loading and release from PEG-PLGA nanoparticles; type: physicochemical
Procedure: PLGA-based nanoparticles were prepared using single-emulsion evaporation. PLGA (AP041, acid end-capped, 50:50, 10-15 kDa, Akina) was blended with Mal-PEG-PLGA (AI53, diblock copolymer, 50:50, 5-10 kDa, Akina) at 25% w/w. The polymers were dissolved in 1 mL dichloromethane (Sigma) and added to 6 mL of ice-cold 0.25% PVA (30,000-70,000 g/mol, Sigma) in 50 mM phosphate buffer, pH 5.8. The two phases were emulsified using a sonic probe (Qsonica Q700 with microtip, amplitude 10, 3 s power with 2 s break). […] The emulsion was stirred at room temperature for 3 h to evaporate the dichloromethane and afterwards purified by two wash-spin cycles in PBS at 20,000 g for 10 min. Nanoparticles s were assessed for size distribution using a Zetasizer Nano series ZS90, and drug encapsulation was determined by absorbance at 370 nm.
Encapsulation efficiency and drug release kinetics were analyzed by its absorbance maximum at 370 nm (FIG. 43A).

CD8+ T cells = assay: CD8+ T cell activation with anti-CD3/CD28 beads in presence of TGFβ1 (proliferation, granzyme B, IFNγ); type: cell-based, mouse
Procedure: FIG. 34. […] Intracellular granzyme B expression was assessed by flow cytometry, n=3±SD. […] Fold change of interferon-γ (IFNγ) was measured by ELISA, n=4±SEM.
In vitro binding of nanoparticles was assessed after incubation of 250,000 enriched T cells with fluorescently (DiD, Life Technologies) labelled nanoparticles at different concentrations for 30 min at 37° C. After the incubation, T cells were washed 3 to 5 times in PBS and directly assessed by flow cytometry for DiD fluorescence. T cells isolated from OT-I Rag^−/− mice were activated by Dynabeads Mouse T-Activator CD3/CD28 (Thermo Scientific) at a ratio of 2:1 T cell to bead or by ova-expressing B16 melanoma cells at a ratio of 10:1 T cell to B16 cell. Carboxyfluorescein succinimidyl ester (CFSE, BioLegend) or cell trace violet (CTV, Thermo Scientific) was used to assess T cell proliferation; the labeling was carried out according to the manufacturer's recommendations. Mouse TGFβ1 was purchased from Cell Signaling Technologies, and T cell supernatants were analyzed by mouse IFN-γ ELISA MAX™ (BioLegend).

[3] = SD-208 released from nanoparticles versus free inhibitor in DMSO

Compound	change of encapsulation efficiency by increasing initial loading amount [1]	amount entrapped in PEG-PLGA nanoparticles [2] [μg/mg polymer]	water solubility [2]	release from the nanoparticles ([2]; PBS containing 10% serum)	TGFβ-mediated inhibition of T cell proliferation (CD8+ T cells; SD-208 released from nanoparticles versus free SD-208, TGFβ1 2 ng/mL, 72 hours)	granzyme B (CD8+ T cells; [3])	interferon γ (IFNγ) (CD8+ T cells; [3])
N#CC[C@H](C1CCCC1)n1cc(-c2ncnc3[nH]ccc23)cn1 [ruxolitinib]	decrease						
NS(=O)(=O)NCCNc1nonc1/C(=N/O)Nc1ccc(F)c(Br)c1 [epacadostat]	increase						
Fc1ccc(Cl)cc1-c1nc(Nc2ccncc2)c2nccnc2n1 [SD-208]		20	poorly water soluble	released slowly from the nanoparticles over the course of weeks	reversed in a comparable manner	upregulated to a similar extent as free inhibitor	upregulated to a similar extent as free inhibitor
